Each structure is given as a SMILES string.

Experimental findings from ChEMBL document CHEMBL3832075, “DailyMed|setid=ff7c9b1c-4192-4d09-a2ab-b80ec14cd424 | PENTOXIL- pentoxifylline tablet, film coated, extended release|UPSHER-SMITH LABORATORIES, INC” are described below.

For series [1], the system named is Homo sapiens. Description: (§1) Pharmacokinetic parameters for Pentoxifylline evaluated after oral administration of Pentoxifylline tablet and in aqueous solution. It counts as ADME, organism-based. To be noted: in vivo, po, dose 400 mg, dosed compound id 54, dosed compound name PENTOXIFYLLINE, tissue Plasma.
The nature of series [2]: as §1. It counts as ADME, organism-based. To be noted: human, in vivo, dosed compound id 54, dosed compound name PENTOXIFYLLINE, tissue Plasma.

For `CC(=O)CCCCn1c(=O)c2c(ncn2C)n(C)c1=O` [PENTOXIFYLLINE], the Tmax in series [1] was 2 to 4 h; in series [2], 1 h. The same molecule registered a half-life in series [2] (dose 100 to 400 mg) of 0.4 to 0.8 h.

A word on the Tmax: it is the time at which the peak concentration occurs. As usually defined, the half-life is how long it takes for the measured level to halve.
